Source: US20240166609A1, “ANTIBACTERIAL COMPOUNDS” (BLACKSMITH MEDICINES, INC., priority 2021, published 2024)
pIC50: −log10 of the molar value. In brackets after ≈: the same amount, converted by molar mass.

Experiments:
P. aeruginosa LpxC = molecular target: T1, P. aeruginosa LpxC (Pseudomonas aeruginosa, UniProt P47205); experiment: LpxC Binding Assay (Rapid Fire MS assay); format: biochemical
T1 sequence (P47205 1-303): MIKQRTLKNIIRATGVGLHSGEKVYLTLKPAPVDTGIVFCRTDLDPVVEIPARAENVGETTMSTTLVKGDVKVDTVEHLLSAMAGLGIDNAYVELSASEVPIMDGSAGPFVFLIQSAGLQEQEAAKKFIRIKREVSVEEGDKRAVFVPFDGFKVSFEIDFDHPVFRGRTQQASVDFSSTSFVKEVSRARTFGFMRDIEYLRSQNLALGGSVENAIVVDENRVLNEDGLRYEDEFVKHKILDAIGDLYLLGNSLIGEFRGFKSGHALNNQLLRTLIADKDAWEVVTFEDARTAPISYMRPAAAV
Procedure: (§1) IC50 values against E. coli and P. aeruginosa LpxC are determined using a Rapid Fire MS assay as previously described J. Med. Chem. 2012, 55, 1662-1670.

E. coli LpxC = molecular target: T2, E. coli LpxC (Escherichia coli, UniProt P0A725); experiment: LpxC Binding Assay (Rapid Fire MS assay); format: biochemical
T2 sequence (P0A725 1-305): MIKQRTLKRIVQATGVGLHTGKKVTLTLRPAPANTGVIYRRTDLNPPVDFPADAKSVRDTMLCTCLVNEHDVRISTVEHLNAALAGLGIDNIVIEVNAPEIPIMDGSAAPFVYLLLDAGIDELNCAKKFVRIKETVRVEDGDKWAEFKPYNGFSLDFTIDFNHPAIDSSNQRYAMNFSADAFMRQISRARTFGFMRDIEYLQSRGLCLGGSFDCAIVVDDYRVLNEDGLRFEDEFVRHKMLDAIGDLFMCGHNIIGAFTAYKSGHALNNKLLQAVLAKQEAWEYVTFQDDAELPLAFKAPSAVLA
Procedure: as §1

K. pneumoniae ATCC13883 = experiment: Bacterial susceptibility testing, MIC by broth microdilution (CLSI); format: cell-based; settings: Klebsiella pneumoniae, 35° C., 18-24 h, read-out: MIC (μg/mL) K. pneumoniae ATCC13883
Outline: (§2)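 CLSI broth microdilution in cation-adjusted Mueller-Hinton broth, final inoculum 3×10^5–7×10^5 CFU/mL, 2-fold serial drug dilutions added from DMSO. Incubated in ambient air at 35° C. for 18-24 h; MIC taken as lowest concentration preventing visible growth (OD600 nm<0.05), with CLSI quality-control strains.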

P. aeruginosa 209 PAO1 = experiment: as above; format: cell-based; settings: Pseudomonas aeruginosa, 35° C., 18-24 h, read-out: MIC (μg/mL) P. aeruginosa 209 PAO1
Outline: as §2

E. coli ATCC25922 = experiment: as above; format: cell-based; settings: Escherichia coli, 35° C., 18-24 h, read-out: MIC (μg/mL) E. coli ATCC25922
Outline: as §2

P. aeruginosa ATCC27835 = experiment: as above; format: cell-based; settings: Pseudomonas aeruginosa, 35° C., 18-24 h, read-out: MIC (μg/mL) P. aeruginosa ATCC27835
Outline: as §2

K. pneumoniae LpxC = K. pneumoniae LpxC (Klebsiella pneumoniae subsp. pneumoniae, UniProt A6T4N9); experiment: LpxC Binding Assay (Rapid Fire MS assay); format: biochemical
K. pneumoniae LpxC, sequence (A6T4N9 whole entry): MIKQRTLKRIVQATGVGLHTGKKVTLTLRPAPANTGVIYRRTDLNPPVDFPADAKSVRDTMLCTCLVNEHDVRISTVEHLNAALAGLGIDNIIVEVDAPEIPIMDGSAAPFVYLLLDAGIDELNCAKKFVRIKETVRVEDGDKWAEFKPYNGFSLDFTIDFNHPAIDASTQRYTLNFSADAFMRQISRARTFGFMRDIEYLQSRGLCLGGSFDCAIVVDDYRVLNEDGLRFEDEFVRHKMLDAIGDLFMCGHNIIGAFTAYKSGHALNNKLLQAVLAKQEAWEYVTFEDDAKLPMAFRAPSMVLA

SMILES	pIC50 (P. aeruginosa LpxC)	pIC50 (E. coli LpxC)	MIC (K. pneumoniae ATCC13883) [µg/mL]	MIC (P. aeruginosa 209 PAO1) [µg/mL]	MIC (E. coli ATCC25922) [µg/mL]	MIC (P. aeruginosa ATCC27835) [µg/mL]	pIC50 (K. pneumoniae LpxC)
C[C@H](O)c1nccn1CC#Cc1ccc(-c2ccc(OCC(N)CO)cc2)cc1 (mixture of isomers) [Compound 7, 2-amino-3-((4′-(3-(2-((S)-1-hydroxyethyl)-1H-imidazol-1-yl)prop-1-yn-1-yl)-[1,1′-biphenyl]-4-yl)oxy)propan-1-ol]	7.59	7.87	4 (≈ 10.2 µM)	2 (≈ 5.11 µM)	2 (≈ 5.11 µM)	2 (≈ 5.11 µM)	
C[C@H](O)c1nccn1[C@@H](C#Cc1ccc(-c2ccc(CO[C@@H]3C[C@H]3N)cc2)cc1)CO (racemic) [Compound 9, (S)-4-(4′-(((trans)-2-aminocyclopropoxy)methyl)-[1,1′-biphenyl]-4-yl)-2-(2-((S)-1-hydroxyethyl)-1H-imidazol-1-yl)but-3-yn-1-ol]	7.32	8.74	4 (≈ 9.58 µM)	2 (≈ 4.79 µM)		4 (≈ 9.58 µM)	8.41
C[C@H](O)c1nccn1[C@@H](C#Cc1ccc(-c2ccc(O[C@@H]3C[C@H]3NCCF)cc2)cc1)CO (racemic) [Compound 12, (S)-4-(4′-((trans)-2-((2-fluoroethyl)amino)cyclopropoxy)-[1,1′-biphenyl]-4-yl)-2-(2-((S)-1-hydroxyethyl)-1H-imidazol-1-yl)but-3-yn-1-ol]	8.22	> 9.30	2 (≈ 4.45 µM)	2 (≈ 4.45 µM)		4 (≈ 8.9 µM)	8.96
C[C@H](O)c1nccn1[C@@H](C#Cc1ccc(-c2ccc(OCC3COCCO3)cc2)cc1)CO (mixture of isomers) [Compound 13, (2S)-4-(4′-((1,4-dioxan-2-yl)methoxy)-[1,1′-biphenyl]-4-yl)-2-(2-((S)-1-hydroxyethyl)-1H-imidazol-1-yl)but-3-yn-1-ol]	8.26	> 9.30	1 (≈ 2.23 µM)	2 (≈ 4.46 µM)		4 (≈ 8.92 µM)	9.05
C[C@H](O)c1nccn1[C@@H](C#Cc1ccc(-c2ccc(OCC(C)(O)CO)cc2)cc1)CO (mixture of isomers) [Compound 16, 3-((4′-((S)-4-hydroxy-3-(2-((S)-1-hydroxyethyl)-1H-imidazol-1-yl)but-1-yn-1-yl)-[1,1′-biphenyl]-4-yl)oxy)-2-methylpropane-1,2-diol]	8.08	8.89	4 (≈ 9.16 µM)	2 (≈ 4.58 µM)		4 (≈ 9.16 µM)	8.66
C[C@H](O)c1nccn1[C@@H](C#Cc1ccc(-c2ccc(OCCC(O)CO)cc2)cc1)CO (mixture of isomers) [Compound 17, 4-((4′-((S)-4-hydroxy-3-(2-((S)-1-hydroxyethyl)-1H-imidazol-1-yl)but-1-yn-1-yl)-[1,1′-biphenyl]-4-yl)oxy)butane-1,2-diol]	8.18	9.30	2 (≈ 4.58 µM)	1 (≈ 2.29 µM)		2 (≈ 4.58 µM)	9.00
C[C@H](O)c1nccn1[C@@H](C#Cc1ccc(-c2ccc(OC(CO)CCO)cc2)cc1)CO (mixture of isomers) [Compound 22, 2-((4′-((S)-4-hydroxy-3-(2-((S)-1-hydroxyethyl)-1H-imidazol-1-yl)but-1-yn-1-yl)-[1,1′-biphenyl]-4-yl)oxy)butane-1,4-diol]	8.10	9.10	4 (≈ 9.16 µM)	1 (≈ 2.29 µM)		4 (≈ 9.16 µM)	8.82
C[C@H](O)c1nccn1[C@@H](C#Cc1ccc(-c2ccc(O[C@H]3COC[C@@H]3O)cc2)cc1)CO (relative stereo) [Compound 10, (trans)-4-((4′-((S)-4-hydroxy-3-(2-((S)-1-hydroxyethyl)-1H-imidazol-1-yl)but-1-yn-1-yl)-[1,1′-biphenyl]-4-yl)oxy)tetrahydrofuran-3-ol]	8.29	> 9.30	2 (≈ 4.6 µM)	1 (≈ 2.3 µM)		2 (≈ 4.6 µM)	9.05
C[C@H](O)c1nccn1[C@@H](C#Cc1ccc(-c2ccc(O[C@H]3COC[C@@H]3N)cc2)cc1)CO (relative stereo) [Compound 15, (S)-4-(4′-(((trans)-4-aminotetrahydrofuran-3-yl)oxy)-[1,1′-biphenyl]-4-yl)-2-(2-((S)-1-hydroxyethyl)-1H-imidazol-1-yl)but-3-yn-1-ol]	8.01	9.00	1 (≈ 2.31 µM)	0.5 (≈ 1.15 µM)		2 (≈ 4.61 µM)	8.80
C[C@H](O)c1nccn1[C@@H](C#Cc1ccc(-c2ccc(O[C@H]3COC[C@@H]3O)cc2)cc1)CN (relative stereo) [Compound 24, (trans)-4-((4′-((S)-4-amino-3-(2-((S)-1-hydroxyethyl)-1H-imidazol-1-yl)but-1-yn-1-yl)-[1,1′-biphenyl]-4-yl)oxy)tetrahydrofuran-3-ol]	7.37	8.72	4 (≈ 9.23 µM)	2 (≈ 4.61 µM)		4 (≈ 9.23 µM)	8.39
C[C@H](O)c1nccn1[C@@H](C#Cc1ccc(-c2ccc(OC[C@@H](O)CO)cc2)cc1)CO [Compound 8, (S)-3-((4′-((S)-4-hydroxy-3-(2-((S)-1-hydroxyethyl)-1H-imidazol-1-yl)but-1-yn-1-yl)-[1,1′-biphenyl]-4-yl)oxy)propane-1,2-diol]	8.02	9.00	4 (≈ 9.47 µM)	2 (≈ 4.73 µM)		2 (≈ 4.73 µM)	8.72
C[C@H](O)c1nccn1[C@@H](C#Cc1ccc(-c2ccc(OCC(CO)CO)cc2)cc1)CO [Compound 11, 2-(((4′-((S)-4-hydroxy-3-(2-((S)-1-hydroxyethyl)-1H-imidazol-1-yl)but-1-yn-1-yl)-[1,1′-biphenyl]-4-yl)oxy)methyl)propane-1,3-diol]	8.18	9.00	8 (≈ 18.3 µM)	2 (≈ 4.58 µM)		4 (≈ 9.16 µM)	8.74
COC[C@@H](O)COc1ccc(-c2ccc(C#C[C@@H](CO)n3ccnc3[C@H](C)O)cc2)cc1 [Compound 14, (S)-4-(4′-((R)-2-hydroxy-3-methoxypropoxy)-[1,1′-biphenyl]-4-yl)-2-(2-((S)-1-hydroxyethyl)-1H-imidazol-1-yl)but-3-yn-1-ol]	8.19	> 9.30	2 (≈ 4.58 µM)	1 (≈ 2.29 µM)		2 (≈ 4.58 µM)	9.05
COCCN1C[C@@H](O)[C@H](Oc2ccc(-c3ccc(C#C[C@@H](CO)n4ccnc4[C@H](C)O)cc3)cc2)C1 [Compound 44, (3R,4R)-4-((4′-((S)-4-hydroxy-3-(2-((S)-1-hydroxyethyl)-1H-imidazol-1-yl)but-1-yn-1-yl)-[1,1′-biphenyl]-4-yl)oxy)-1-(2-methoxyethyl)pyrrolidin-3-ol]			4 (≈ 8.14 µM)	4 (≈ 8.14 µM)	2 (≈ 4.07 µM)	4 (≈ 8.14 µM)	
C[C@H](O)c1nccn1[C@@H](C#Cc1ccc(-c2ccc(O[C@@H]3CN(CC#N)C[C@H]3O)cc2)cc1)CO [Compound 45, 2-((3R,4R)-3-hydroxy-4-((4′-((S)-4-hydroxy-3-(2-((S)-1-hydroxyethyl)-1H-imidazol-1-yl)but-1-yn-1-yl)-[1,1′-biphenyl]-4-yl)oxy)pyrrolidin-1-yl)acetonitrile]			8 (≈ 16.9 µM)	2 (≈ 4.23 µM)	16 (≈ 33.9 µM)	2 (≈ 4.23 µM)	
